Literature values in US20230104323A1, “FORMULATIONS OF POLYBASIC DRUGS TO REDUCE MULTI-ORGAN TOXICITY” (priority 2019, published 2023).

Test system: healthy subjects
Conditions: plazomicin injection

**Q.** Which “Nephrotoxicity and ototoxicity in humans” value does the source give for `CN[C@@H]1[C@@H](O)[C@@H](O[C@@H]2[C@@H](O)[C@H](O[C@H]3OC(CNCCO)=CC[C@H]3N)[C@@H](N)C[C@H]2NC(=O)[C@@H](O)CCN)OC[C@]1(C)O` [plazomicin] here?
**A.** no nephrotoxicity and ototoxicity
